The target of assay [1] is Proteasome subunit alpha type-6 (Homo sapiens, UniProt P60900). Nature of the assay: Proteasome Activity Assay. Particulars: pH 7.5; 37 °C. The protocol: Activity assays were carried out in a 200 uL reaction volume. Different concentrations of test compounds were added to a black flat/clear bottom 96-well plate containing 1 nM of either human constitutive 20S proteasome or 26S proteasome, in 50 mM Tris-HCl at pH 7.5 and allowed to sit for 10 min at RT. Fluorogenic substrates were then added and the enzymatic activity measured at 37 °C on a SpectraMax M5e spectrometer by measuring the change in fluorescence unit per minute for 1 h at 380−460 nm. The fluorescence units for the vehicle control were set at a 100%, and the ratio of drug-treated sample set to that of vehicle control was used to calculate the fold change in enzymatic activity.
Chain of Proteasome subunit alpha type-6 (P60900 whole entry): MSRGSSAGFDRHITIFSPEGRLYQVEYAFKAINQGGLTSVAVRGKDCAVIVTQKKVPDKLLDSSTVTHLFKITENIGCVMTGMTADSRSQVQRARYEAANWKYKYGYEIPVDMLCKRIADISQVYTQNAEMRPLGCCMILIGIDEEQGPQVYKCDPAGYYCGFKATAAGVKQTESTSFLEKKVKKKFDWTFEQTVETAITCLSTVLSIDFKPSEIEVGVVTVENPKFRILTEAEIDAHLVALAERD

Assay [2] deals with Dopamine D2 receptor (Homo sapiens). As to the kind of experiment: Human embryonic kidney (HEK-293) cells were plated in 100 mm plates and transfected with pcDNA3.1-D2R using Lipofectamine 2000 (Invitrogen; Waltham, MA) according to the manufacturer's instructions. Radioligand binding assays were performed 24 h after transfection essentially as described.

SMILES strings stand for the structures. “And” between values parts separate entries of the source, which are not always exact repeats. Equal values may be shown once. Where a name gives a salt, the structure may show the parent alone.

The text below walks through data of BindingDB's records for doi:10.1021/acschembio.7b00489 (Michigan State University, 2017).

With `CSc1ccc2c(c1)N(CC[C@@H]1CCCCN1C)c1ccccc1S2` [10-[2-(1-Methyl-piperidin-2-yl)-ethyl]-2-methylsulfanyl-10H-phenothiazine (thioridazine)], the EC50 in assay [1] came out at 12 µM.

Turning to `CN(C)CCCN1c2ccccc2CCc2ccc(Cl)cc21` [CLOMIPRAMINE HYDROCHLORIDE], the EC50 in assay [1] came out at 12.4 µM.

In assay [2], `CC(C)CCCN1c2ccccc2Sc2ccc(Cl)cc21` [CPZ analog, 1] showed a Ki of over 250 µM. The EC50 in assay [1] is over 25 µM.

`O=S(=O)(O)CCCCN1c2ccccc2Sc2ccc(Cl)cc21` [CPZ analog, 2] showed a Ki in assay [2] of over 250 µM. Further, the midpoint of the response in assay [1], the EC50, lay at 6.3 µM.

In turn, `O=S(=O)(O)CCCN1c2ccccc2Sc2ccc(Cl)cc21` [CPZ analog, 3] came in with an EC50 in assay [1] of over 25 µM.

In turn, `O=S(=O)(O)CCCCCN1c2ccccc2Sc2ccc(Cl)cc21` [CPZ analog, 4] had an EC50 in assay [1] of over 25 µM.

In assay [2], `Clc1ccc2c(c1)N(CCCCN1CCOCC1)c1ccccc1S2` [CPZ analog, 5] had a Ki of over 2.97 µM. Moreover, the EC50 in assay [1] came out at 8.9 µM.

For the compound `O=C(O)C#CCN1c2ccccc2Sc2ccc(Cl)cc21` [CPZ analog, 6], the Ki in assay [2] is over 250 µM. The EC50 in assay [1] was over 25 µM.

In assay [2], `O=C(O)c1ccc(CN2c3ccccc3Sc3ccc(Cl)cc32)cc1` [CPZ analog, 7] gave a Ki of over 250 µM. The concentration for a half-maximal effect (EC50) in assay [1] came out at 6.4 µM.

In turn, `COC(=O)c1ccc(CN2c3ccccc3Sc3ccc(Cl)cc32)cc1` [CPZ analog, 8] came in with a Ki in assay [2] of over 250 µM. The compound further showed an EC50 in assay [1] of 15.6 µM.

Regarding `CN1CCCC(CC2c3ccccc3Sc3ccccc32)C1` (centres undefined) [METHIXENE], the 50% effective concentration (EC50) in assay [1] came out at 11.9 µM.

In turn, `CN(C)CCCN1c2ccccc2Sc2ccc(C(F)(F)F)cc21` [TRIFLUPROMAZINE] returned an EC50 in assay [1] of 7.8 µM.

Turning to `CN(C)CCCN1c2ccccc2Sc2ccc(Cl)cc21` [[3-(2-Chloro-phenothiazin-10-yl)-propyl]-dimethyl-amine(Chlorpromazine)], in assay [1], the EC50 is 14.8 µM and 9.9 µM.

The term EC50 denotes the concentration needed to bring the measured effect to its halfway point. Read a high EC50 as a need for much substance. What is called Ki is the equilibrium dissociation constant of an inhibitor or competing ligand from its target. Higher therefore signals a looser hold on the target.
